Patent US10231453B2, “5-substituted imidazole derivatives” (BAYER CROPSCIENCE AKTIENGESELLSCHAFT, priority 2015, dated 2019)
Where two headings read alike, the source gives them in different places. Marks after values point to notes of the source that are not given here.

How the values were obtained:
[1] = Measurement of LogP values by HPLC on reversed phase columns (EEC directive 79/831 Annex V.A8); format: physicochemical; conditions: for chromatographic logP: method [a]: LC-UV, acidic range, 0.1% formic acid in water and acetonitrile as eluent
Protocol: Measurement of Log P values was performed as outlined above.

Puccinia recondita = test: In vivo preventive test on Puccinia recondita (brown rust on wheat), Examples C and R3; conditions: Puccinia recondita, 264 h; 500 ppm of active ingredient; wheat, preventive spray, evaluated 11 days after inoculation; read-out: efficacy
Pyrenophora teres = test: In vivo preventive test on Pyrenophora teres (net blotch on barley), Examples D, Q2 and R4; conditions: Pyrenophora teres, 336 h; for pest or weed control at 100 ppm: Example R4, rate of application 100 ppm
Septoria tritici = test: In vivo preventive test on Septoria tritici (leaf spot on wheat), Examples E, Q3 and R5; conditions: Zymoseptoria tritici, 576 h, 500 ppm of active ingredient; wheat, preventive spray, evaluated 24 days after inoculation; read-out: efficacy
Uromyces appendiculatus = test: In vivo preventive test on Uromyces appendiculatus (bean rust), Examples G and R7; conditions: 264 h, 500 ppm of active ingredient, bean, preventive spray, evaluated 11 days after inoculation, read-out: efficacy
Sphaerotheca fuliginea = test: In vivo preventive test on Sphaerotheca fuliginea (powdery mildew on cucurbits), Examples F and R6; conditions: Podosphaera fuliginea, 360 h; 500 ppm of active ingredient; gherkin, preventive spray, evaluated 15 days after inoculation; read-out: efficacy
[2] = Table 2, compounds of formula (XVII)
[3] = Example R4, rate of application 500 ppm, read-out: Efficacy in %

SMILES: N#Cc1cncn1CC(O)(Cc1cccc(F)c1F)C1CCC1 (stereo not shown) [Example I-148]
- chromatographic logP ([1]; Table 1): 2.57
- pest or weed control at 500 ppm (Puccinia recondita): 90 to 100%
- pest or weed control at 500 ppm (Pyrenophora teres; 500 ppm of active ingredient, preventive spray, evaluated 14 days after inoculation, read-out: efficacy): 80 to 89%
- pest or weed control at 500 ppm (Septoria tritici): 90 to 100%
- pest or weed control at 500 ppm (Uromyces appendiculatus): 90 to 100%

SMILES: O=C(Cc1ccccc1)c1cncn1CC(O)(Cc1ccccc1)C1(Cl)CC1 (stereo not shown) [Example I-169]
- chromatographic logP ([1]; Table 1): 3.56
- pest or weed control at 500 ppm (Puccinia recondita): 70 to 79%
- pest or weed control at 500 ppm (Septoria tritici): 70 to 79%
- pest or weed control at 500 ppm (Sphaerotheca fuliginea): 90 to 100%
- pest or weed control at 500 ppm (Uromyces appendiculatus): 70 to 79%

SMILES: N#Cc1cncn1CC(=O)C1(Cl)CC1 [XVII-2, 1-[2-(1-chlorocyclopropyl)-2-oxoethyl]-1H-imidazole-5-carbonitrile]
- chromatographic logP [1, 2]: 1.35

SMILES: N#Cc1cncn1CC(=O)C1CC1 [XVII-3]
- chromatographic logP [1, 2]: 0.74

SMILES: N#Cc1cncn1CC(=O)C1(F)CC1 [XVII-4]
- chromatographic logP [1, 2]: 1.05

SMILES: O=C(Cn1cncc1F)C1(Cl)CC1 [XVII-5]
- chromatographic logP [1, 2]: 0.32

SMILES: COC(=O)c1cncn1CC(=O)C1(Cl)CC1 [XVII-6]
- chromatographic logP [1, 2]: 1.2

SMILES: CC(C)(C)C(=O)Cn1cncc1C#N [XVII-7]
- chromatographic logP [1, 2]: 1.47

SMILES: CC(C)(Cl)C(=O)Cn1cncc1C#N [XVII-8]
- LogP [1]: 1.65^[a]

SMILES: N#Cc1cncn1CC(=O)C1(C#N)CC1 [XVII-9]
- chromatographic logP [1, 2]: 0.9

SMILES: O=C(Cn1cncc1I)C1(Cl)CC1 [XVII-10]
- chromatographic logP [1, 2]: 0.7

SMILES: CC(C)(F)C(=O)Cn1cncc1C#N [XVII-11]
- chromatographic logP [1, 2]: 1.31

SMILES: N#Cc1cncn1CC(=O)CC1CC1 [XVII-12]
- chromatographic logP [1, 2]: 1.27

SMILES: CC(C)(C)CC(=O)Cn1cncc1C#N [XVII-13]
- chromatographic logP [1, 2]: 1.88

SMILES: CC(C)C(=O)Cn1cncc1C#N [XVII-14]
- chromatographic logP [1, 2]: 1.14

SMILES: N#Cc1cncn1CC(=O)C1CCCC1 [XVII-15]
- chromatographic logP [1, 2]: 1.57

SMILES: N#Cc1cncn1CC(=O)C1(F)CCCC1 [XVII-16]
- chromatographic logP [1, 2]: 1.81

SMILES: N#Cc1cncn1CC(=O)C1CCC1 [XVII-17]
- chromatographic logP [1, 2]: 1.26

SMILES: N#Cc1cncn1CC(=O)C1(Cl)CCC1 [XVII-18]
- chromatographic logP [1, 2]: 1.86

SMILES: CCCCC(=O)Cn1cncc1C#N [XVII-19]
- chromatographic logP [1, 2]: 1.6

SMILES: OC(Cc1ccccc1Cl)(Cn1cnc(Br)c1)C1(Cl)CC1 (stereo not shown) [drawing 106, reference compound]
- pest or weed control at 100 ppm (Pyrenophora teres; read-out: Efficacy in %): 0%
- pest or weed control at 500 ppm (Pyrenophora teres; [3]): 0%

SMILES: N#Cc1cn(CC(O)(Cc2ccccc2Cl)C2(Cl)CC2)cn1 (stereo not shown) [drawing 108, reference compound]
- pest or weed control at 100 ppm (Pyrenophora teres; read-out: Efficacy in %): 0%
- pest or weed control at 500 ppm (Pyrenophora teres; [3]): 0%

SMILES: C#Cc1cn(CC(O)(Cc2ccccc2F)C2(Cl)CC2)cn1 (stereo not shown) [drawing 110, reference compound]
- pest or weed control at 100 ppm (Pyrenophora teres; read-out: Efficacy in %): 0%
- pest or weed control at 500 ppm (Pyrenophora teres; [3]): 0%

SMILES: OC(Cc1ccccc1F)(Cn1cnc(Cl)c1)C1(Cl)CC1 (stereo not shown) [drawing 112, reference compound]
- pest or weed control at 100 ppm (Pyrenophora teres; read-out: Efficacy in %): 0%
- pest or weed control at 500 ppm (Pyrenophora teres; [3]): 0%

SMILES: OC(Cc1ccccc1F)(Cn1ccnc1Cl)C1(Cl)CC1 (stereo not shown) [drawing 113, reference compound]
- pest or weed control at 100 ppm (Pyrenophora teres; read-out: Efficacy in %): 0%
- pest or weed control at 500 ppm (Pyrenophora teres; [3]): 0%

SMILES: N#Cc1cn(CC(O)(Cc2ccccc2F)C2(Cl)CC2)cn1 (stereo not shown) [drawing 121, reference compound]
- pest or weed control at 100 ppm (Pyrenophora teres; read-out: Efficacy in %): 0%
- pest or weed control at 500 ppm (Pyrenophora teres; [3]): 0%
